# Data reported in patent US20100173832A1, “ANTICANCEROUS POLYMERIC AGENTS” (TECHNION RESEARCH & DEVELOPMENT FOUNDATION LTD., priority 2007, published 2010).
# Where two headings read alike, the source gives them in different places. Non-standard residues stand in square brackets, D forms with d. Residues, ends and D or L forms follow the SMILES beside them. *: point of attachment. Lauroyl = CCCCCCCCCCCC(=O)*; 12Ado = NCCCCCCCCCCCC(=O)O
# Key:
# TRAMP-C2 cell line = assay type: cell-based; settings: for CC50: 24 hours incubation, XTT, read-out: Cancer LC50 Mouse prostate cancer TRAMP-C2
# Text: Transgenic adenocarcinoma mouse prostate cells (TRAMP-C2);
# (§1) As a routine cancer cell killing assay for assessment of antitumor activity, 2,3-bis(2-methoxy-4-nitro-5-sulfophenyl)-2H-tetrazolium-5-carboxanilide inner salt (XTT) reduction assay was used, utilizing a commercial kit such as, for example, Cell Proliferation XTT Kit, Cat. No. 20-300-1000, Biological Industries Ltd., Kibbutz Beit Haemek, Israel. XTT is a tetrazolium salt which is cleaved to formazan colored compounds by the mitochondrial dehydrogenase enzymes indicating proper mitochondrial activity in intact cells.
# (§2) Thereafter, a series of increasing concentrations of the polymers were added. After another 24 hours of incubation, XTT reaction solution was added (50 μl of XTT per 100 μl of cell culture medium). The optical density of the cells was measured at 450 nm by ELISA plate reader after 2-4 hours XTT incubation. Cell viability was determined relative to a control having no polymer added thereto.
# “Mouse prostate cancer TRAMP-C2” represents the lethal concentration in μM as measured against TRAMP-C2 cell line, measured as described hereinabove in the cell proliferation XTT assay (column 5 in Table 3);
# MCF-7 cell line = assay type: cell-based
# Protocol: Human breast adenocarcinoma cells (MCF-7);
# Thereafter, a series of increasing concentrations of the polymers were added. […] The optical density of the cells was measured at 450 nm by ELISA plate reader after 2-4 hours XTT incubation. Cell viability was determined relative to a control having no polymer added thereto.
# N-417 cell line = experiment: XTT cell viability assay, N-417 cells; assay type: cell-based; settings: 24 hours incubation, XTT; read-out: Cancer LC50 Human small-cell lung carcinoma N-417
# Text: Variant small cell lung cancer cells (N-417, SCLC);
# as §1, §2
# “Human breast cancer MCF-7” represents the lethal concentration in μM as measured against MCF-7 cell line, measured as described hereinabove in the cell proliferation XTT assay (column 6 in Table 3); “Human small-cell lung carcinoma N-417” represents the lethal concentration in μM as measured against N-417 cell line, measured as described hereinabove in the cell proliferation XTT assay (column 7 in Table 3);
# [1] = XTT cell viability assay, non-cancerous cardiac fibroblasts (CF); assay type: cell-based, rat; settings: rat
# Text: Primary non-cancerous rat cardiac fibroblasts (CF);
# as §1, §2
# “Rat primary cardiac fibroblast CF” represents the lethal concentration in μM as measured against CF cell line, measured as described hereinabove in the cell proliferation XTT assay (column 8 in Table 3);
# in vitro = settings: human, red blood cells
# Protocol: (§3) The polymer's toxic potential was determined against human red blood cells (RBC) by measuring leakage of hemoglobin therefrom in phosphate buffer solution (PBS). Human blood samples were rinsed three times in PBS by centrifugation for 2 minutes at 200×g, and re-suspended in PBS at 5% hematocrit. A 50 μl-fractions of a suspension containing […] RBC were added to test tubes containing 200 μl of polymer solutions (2-fold serial dilutions in PBS), PBS alone (for base-line values), or distilled water (for 100% hemolysis). […] Controls for base-line hemolysis (blank) and 100% hemolysis consisted of RBC suspended in PBS and TritonX100 (0.2%), respectively.
# [2] = system: human red blood cells (RBC); experiment: in vitro
# Protocol: as §3
# [3] = system: ovarian carcinoma 2008 drug-sensitive cells; experiment: Cytotoxicity against drug-sensitive ovarian carcinoma 2008 cells; settings: read-out: LC50 against drug-sensitive 2008 cells
# [4] = system: drug-resistant 2008/MRP1 cells; settings: human, 3 day
# [5] = system: drug-resistant 2008/MRP1 cells; experiment: Cytotoxicity against drug-resistant 2008/MRP1 cells; settings: read-out: LC50 against drug-resistant 2008/MRP1 cells; 1 day exposure (overnight), FIG. 10
# [6] = 24 hours incubation, XTT, read-out: Cancer LC50 Human breast cancer MCF-7
# [7] = primary non-cancerous cardiac fibroblasts (CF), 24 hours incubation, XTT, non-cancerous cells, read-out: Cancer LC50 Rat primary cardiac fibroblast CF
SMILES,CC50 (TRAMP-C2 cell line) [µM],CC50 (MCF-7 cell line; [6]) [µM],CC50 (N-417 cell line) [µM],"CC50 at 24 h [1, 7] [µM]",HC50 at 3 h (in vitro) [µM],"CC50 ([2]; read-out: LC50 RBC (hemolytic concentration inducing lysis of 50% of human red blood cells), 3 hours incubation at 37° C., hemoglobin leakage assay) [µM]","TRAMP-C2 lethal concentration (TRAMP-C2 cell line; mouse prostate cancer TRAMP-C2 cells, XTT assay) [µM]","MCF-7 lethal concentration (MCF-7 cell line; human breast adenocarcinoma MCF-7 cells, XTT assay) [µM]","CC50 ([3]; Homo sapiens, 72 h) [µM]",hemolytic concentration versus cytotoxic concentration against cancer cells [2],CC50 [4] [µM],CC50 [5] [µM],"CC50 ([3]; 1 day exposure (overnight), FIG. 10) [µM]","CC50 (MCF-7 cell line; human, 24 h) [µM]",CC50 at 24 h ([1]; LC50 against non-cancerous CF cells) [µM]
NCCCC[C@H](NC(=O)CCCCCCCCCCCNC(=O)[C@H](CCCCN)NC(=O)[C@H](CCCCN)NC(=O)CCCCCCCCCCCNC(=O)[C@H](CCCCN)NC(=O)[C@H](CCCCN)NC(=O)CCCCCCCCCCCNC(=O)[C@@H](N)CCCCN)C(N)=O [(KNC12K)3NH2] (H-K[12Ado]KK[12Ado]KK[12Ado]K-NH2),> 16,> 16,> 16,> 16,> 100,> 100,,,,,,,,,
"COc1cccc2c1C(=O)c1c(O)c3c(c(O)c1C2=O)C[C@@](O)(C(=O)CO)C[C@@H]3O[C@H]1C[C@H](N)[C@H](O)[C@H](C)O1 [doxorubicin, reference compound]",,,,,,,0.5 ± 0.5,3.3 ± 2,0.035,,,,,,
NCCCCCCCCCCCC(=O)N[C@@H](CCCCN)C(=O)N[C@@H](CCCCN)C(=O)NCCCCCCCCCCCC(=O)N[C@@H](CCCCN)C(=O)N[C@@H](CCCCN)C(=O)NCCCCCCCCCCCC(=O)N[C@@H](CCCCN)C(=O)N[C@@H](CCCCN)C(=O)NCCCCCCCCCCCC(=O)N[C@@H](CCCCN)C(N)=O (H-[12Ado]KK[12Ado]KK[12Ado]KK[12Ado]K-NH2),15,7 ± 1,10 ± 1,35 ± 5,> 100,,,,,more than one order of magnitude higher,4,~15,~15,,
NCCCCCCCCCCCC(=O)N[C@@H](CCCCN)C(=O)NCCCCCCCCCCCC(=O)N[C@@H](CCCCN)C(=O)N[C@@H](CCCCN)C(=O)NCCCCCCCCCCCC(=O)N[C@@H](CCCCN)C(=O)N[C@@H](CCCCN)C(=O)NCCCCCCCCCCCC(=O)N[C@@H](CCCCN)C(N)=O [NC12(KNC12K)3NH2] (H-[12Ado]K[12Ado]KK[12Ado]KK[12Ado]K-NH2),> 16,7 ± 1,> 16,37 ± 1,> 100,,,,,more than one order of magnitude higher,,,,,
NCCCC[C@H](NC(=O)CCCCCCCCCCCNC(=O)[C@H](CCCCN)NC(=O)[C@H](CCCCN)NC(=O)CCCCCCCCCCCNC(=O)[C@@H](N)CCCCN)C(N)=O [(KNC12K)2NH2] (HELM PEPTIDE1{K.[O=C(CCCCCCCCCCCN[*:1])[*:2]].K.K.[O=C(CCCCCCCCCCCN[*:1])[*:2]].K.[am]}$$$$V2.0),> 16,> 16,> 16,> 16,> 100,,,,,,,,,,
NCCCC[C@H](NC(=O)CCCCCCCCCCCNC(=O)[C@H](CCCCN)NC(=O)[C@H](CCCCN)NC(=O)CCCCCCCCCCCNC(=O)[C@H](CCCCN)NC(=O)[C@H](CCCCN)NC(=O)CCCCCCCCCCCNC(=O)[C@H](CCCCN)NC(=O)[C@@H](N)CCCCN)C(N)=O [K(KNC12K)3NH2] (H-KK[12Ado]KK[12Ado]KK[12Ado]K-NH2),> 16,> 16,> 16,> 16,> 100,,,,,,,,,,
CCCCCCCCCCCC(=O)N[C@@H](CCCCN)C(=O)NCCCCCCCCCCCC(=O)N[C@@H](CCCCN)C(=O)N[C@@H](CCCCN)C(=O)NCCCCCCCCCCCC(=O)N[C@@H](CCCCN)C(N)=O [C12(KNC12K)2NH2] (Lauroyl-K[12Ado]KK[12Ado]K-NH2),> 16,,10 ± 1,67 ± 10,17 ± 6,,,,,,,,,11,67
